# In ChEMBL document CHEMBL5649166, “RIP3 induces apoptosis independent of pronecrotic kinase activity” (Mol Cell, 2014):
# How the values were obtained:
# [1] = target: Serine/threonine-protein kinase PLK3 (Homo sapiens) (UniProt Q9H4B4); test: Residual activity of human PLK3 using casein as substrate at 1 uM in presence of 32P-ATP by Hotspot assay relative to control
# [2] = target: Focal adhesion kinase 1 (Homo sapiens) (UniProt Q05397); test: Inhibition of human FAK/PTK2 using poly[Glu:Tyr] (4:1) as substrate at 1 uM in presence of 32P-ATP by Hotspot assay relative to control; values are per cent of control
# [3] = target: Mitogen-activated protein kinase kinase kinase 9 (Homo sapiens) (UniProt P80192); test: Inhibition of human MLK1/MAP3K9 using casein as substrate at 1 uM in presence of 32P-ATP by Hotspot assay relative to control; values are per cent of control
# [4] = target: T1, Inhibitor of nuclear factor kappa-B kinase subunit beta (Homo sapiens) (UniProt O14920); test: Inhibition of human IKKb/IKBKB using KKKKERLLDDRHDSGLDSMKDEE as substrate at 1 uM in presence of 32P-ATP by Hotspot assay relative to control; values are per cent of control
# T1 sequence (whole entry): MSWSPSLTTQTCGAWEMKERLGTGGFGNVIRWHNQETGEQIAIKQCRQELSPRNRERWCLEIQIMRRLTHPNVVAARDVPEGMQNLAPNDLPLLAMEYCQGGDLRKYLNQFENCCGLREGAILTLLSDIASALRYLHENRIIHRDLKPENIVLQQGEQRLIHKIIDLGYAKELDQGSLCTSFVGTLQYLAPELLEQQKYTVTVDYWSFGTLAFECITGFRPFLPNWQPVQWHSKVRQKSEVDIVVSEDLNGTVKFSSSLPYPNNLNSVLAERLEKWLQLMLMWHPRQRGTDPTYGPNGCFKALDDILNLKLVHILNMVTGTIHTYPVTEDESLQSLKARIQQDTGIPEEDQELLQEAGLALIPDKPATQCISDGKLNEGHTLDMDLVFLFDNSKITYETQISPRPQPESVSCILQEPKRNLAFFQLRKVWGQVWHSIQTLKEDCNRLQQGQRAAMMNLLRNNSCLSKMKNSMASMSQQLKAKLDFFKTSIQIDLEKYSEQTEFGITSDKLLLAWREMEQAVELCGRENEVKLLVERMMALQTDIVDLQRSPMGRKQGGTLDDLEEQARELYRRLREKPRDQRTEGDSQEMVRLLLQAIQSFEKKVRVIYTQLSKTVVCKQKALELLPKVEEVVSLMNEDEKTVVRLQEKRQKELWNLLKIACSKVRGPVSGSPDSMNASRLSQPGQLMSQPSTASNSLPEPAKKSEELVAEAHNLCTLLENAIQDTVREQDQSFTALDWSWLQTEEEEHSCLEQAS
# [5] = target: Mitogen-activated protein kinase 8 (Homo sapiens) (UniProt P45983); test: Inhibition of human JNK1 using ATF2 as substrate at 1 uM in presence of 32P-ATP by Hotspot assay relative to control; values are per cent of control
# [6] = target: T2, Serine/threonine-protein kinase A-Raf (Homo sapiens) (UniProt P10398); test: Inhibition of human ARAF using MEK1 (K97R) as substrate at 1 uM in presence of 32P-ATP by Hotspot assay relative to control; values are per cent of control
# T2 sequence (whole entry): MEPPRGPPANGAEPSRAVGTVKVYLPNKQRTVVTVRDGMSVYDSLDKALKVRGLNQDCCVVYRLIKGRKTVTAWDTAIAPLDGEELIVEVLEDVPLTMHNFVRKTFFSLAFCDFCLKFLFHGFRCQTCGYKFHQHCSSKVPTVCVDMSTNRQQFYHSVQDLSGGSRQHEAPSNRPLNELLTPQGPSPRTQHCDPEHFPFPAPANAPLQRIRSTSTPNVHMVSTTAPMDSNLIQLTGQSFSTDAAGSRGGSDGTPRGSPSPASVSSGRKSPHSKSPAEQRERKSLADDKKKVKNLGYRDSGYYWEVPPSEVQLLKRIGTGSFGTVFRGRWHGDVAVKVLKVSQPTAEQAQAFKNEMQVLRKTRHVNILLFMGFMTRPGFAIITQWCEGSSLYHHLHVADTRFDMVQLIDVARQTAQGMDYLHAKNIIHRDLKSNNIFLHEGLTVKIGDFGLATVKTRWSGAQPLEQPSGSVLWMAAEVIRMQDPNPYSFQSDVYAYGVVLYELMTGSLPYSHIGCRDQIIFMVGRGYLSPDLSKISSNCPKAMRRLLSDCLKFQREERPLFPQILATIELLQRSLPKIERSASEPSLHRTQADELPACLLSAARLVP
# [7] = target: T3, Serine/threonine-protein kinase Sgk2 (Homo sapiens) (UniProt Q9HBY8); test: Inhibition of human SGK2 using KGSGSGRPRTSSFAEG as substrate at 1 uM in presence of 32P-ATP by Hotspot assay relative to control; values are per cent of control
# T3 sequence (whole entry): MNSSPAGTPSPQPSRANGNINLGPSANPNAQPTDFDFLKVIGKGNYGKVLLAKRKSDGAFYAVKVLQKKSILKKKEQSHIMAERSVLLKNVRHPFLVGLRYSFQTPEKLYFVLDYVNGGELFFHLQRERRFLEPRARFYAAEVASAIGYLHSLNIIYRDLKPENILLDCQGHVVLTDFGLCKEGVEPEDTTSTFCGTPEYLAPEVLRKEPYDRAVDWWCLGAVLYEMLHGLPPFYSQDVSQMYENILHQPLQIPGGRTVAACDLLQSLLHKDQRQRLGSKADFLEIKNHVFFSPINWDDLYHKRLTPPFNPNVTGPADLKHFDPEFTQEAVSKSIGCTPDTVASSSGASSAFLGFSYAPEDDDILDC
# [8] = target: Ephrin type-A receptor 7 (Homo sapiens) (UniProt Q15375); test: Inhibition of human EPHA7 using poly[Glu:Tyr] (4:1) as substrate at 1 uM in presence of 32P-ATP by Hotspot assay relative to control; values are per cent of control
# Sequence of Ephrin type-A receptor 7 (Homo sapiens) (Q15375 28-998 limits assumed): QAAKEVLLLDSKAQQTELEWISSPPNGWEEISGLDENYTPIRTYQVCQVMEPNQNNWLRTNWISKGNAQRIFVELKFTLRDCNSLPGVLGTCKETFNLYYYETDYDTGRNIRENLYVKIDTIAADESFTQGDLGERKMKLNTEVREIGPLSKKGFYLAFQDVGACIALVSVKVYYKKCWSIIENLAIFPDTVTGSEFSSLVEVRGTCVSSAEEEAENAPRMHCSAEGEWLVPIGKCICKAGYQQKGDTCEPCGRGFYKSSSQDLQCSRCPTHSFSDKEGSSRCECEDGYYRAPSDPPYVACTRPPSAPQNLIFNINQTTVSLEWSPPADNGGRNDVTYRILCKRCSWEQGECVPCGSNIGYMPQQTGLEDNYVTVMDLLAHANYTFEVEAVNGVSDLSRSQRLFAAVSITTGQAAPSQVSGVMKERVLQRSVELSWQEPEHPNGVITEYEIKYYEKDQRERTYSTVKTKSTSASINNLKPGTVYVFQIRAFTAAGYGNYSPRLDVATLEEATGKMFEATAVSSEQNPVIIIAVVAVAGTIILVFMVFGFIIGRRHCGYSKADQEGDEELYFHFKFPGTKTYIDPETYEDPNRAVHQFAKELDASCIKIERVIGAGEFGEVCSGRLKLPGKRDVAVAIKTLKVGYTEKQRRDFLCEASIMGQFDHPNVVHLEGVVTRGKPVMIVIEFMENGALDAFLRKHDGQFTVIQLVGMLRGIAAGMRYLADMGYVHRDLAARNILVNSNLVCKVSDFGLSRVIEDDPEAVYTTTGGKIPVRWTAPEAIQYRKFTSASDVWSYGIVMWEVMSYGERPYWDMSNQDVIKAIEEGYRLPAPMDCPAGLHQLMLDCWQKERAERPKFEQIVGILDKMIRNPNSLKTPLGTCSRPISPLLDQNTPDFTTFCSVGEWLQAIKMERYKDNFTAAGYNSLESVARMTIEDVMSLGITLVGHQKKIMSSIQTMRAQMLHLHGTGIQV
# Sequence of Serine/threonine-protein kinase PLK3 (Homo sapiens) (Q9H4B4 whole entry, looked up): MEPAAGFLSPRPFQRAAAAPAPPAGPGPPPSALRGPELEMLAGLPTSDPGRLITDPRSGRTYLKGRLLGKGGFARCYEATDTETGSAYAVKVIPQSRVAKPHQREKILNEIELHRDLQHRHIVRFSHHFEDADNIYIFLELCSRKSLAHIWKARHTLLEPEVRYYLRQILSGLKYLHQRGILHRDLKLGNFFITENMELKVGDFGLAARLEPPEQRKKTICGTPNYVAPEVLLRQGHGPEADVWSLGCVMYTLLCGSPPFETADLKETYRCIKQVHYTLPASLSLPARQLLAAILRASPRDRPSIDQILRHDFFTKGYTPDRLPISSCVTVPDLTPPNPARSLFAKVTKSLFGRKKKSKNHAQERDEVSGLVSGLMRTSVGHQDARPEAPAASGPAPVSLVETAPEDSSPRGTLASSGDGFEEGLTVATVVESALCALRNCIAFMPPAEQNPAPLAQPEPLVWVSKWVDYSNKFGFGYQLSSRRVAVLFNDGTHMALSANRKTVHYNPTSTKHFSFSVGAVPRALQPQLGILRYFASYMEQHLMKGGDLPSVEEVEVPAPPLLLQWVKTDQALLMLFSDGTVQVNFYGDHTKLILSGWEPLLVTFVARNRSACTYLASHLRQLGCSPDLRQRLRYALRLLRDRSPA
# Sequence of Mitogen-activated protein kinase 8 (Homo sapiens) (P45983 whole entry): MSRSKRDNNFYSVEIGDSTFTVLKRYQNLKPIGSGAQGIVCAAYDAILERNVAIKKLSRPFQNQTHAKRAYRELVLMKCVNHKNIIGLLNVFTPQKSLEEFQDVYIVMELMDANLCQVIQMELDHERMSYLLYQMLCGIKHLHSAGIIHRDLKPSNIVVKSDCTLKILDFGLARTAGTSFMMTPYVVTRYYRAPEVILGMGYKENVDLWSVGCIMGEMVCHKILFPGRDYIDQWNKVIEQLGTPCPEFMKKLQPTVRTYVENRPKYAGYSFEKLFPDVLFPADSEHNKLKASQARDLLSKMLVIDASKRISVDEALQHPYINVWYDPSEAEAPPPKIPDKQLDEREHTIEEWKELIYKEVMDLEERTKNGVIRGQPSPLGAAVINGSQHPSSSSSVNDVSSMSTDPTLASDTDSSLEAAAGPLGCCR
# Sequence of Mitogen-activated protein kinase kinase kinase 9 (Homo sapiens) (P80192 whole entry, looked up): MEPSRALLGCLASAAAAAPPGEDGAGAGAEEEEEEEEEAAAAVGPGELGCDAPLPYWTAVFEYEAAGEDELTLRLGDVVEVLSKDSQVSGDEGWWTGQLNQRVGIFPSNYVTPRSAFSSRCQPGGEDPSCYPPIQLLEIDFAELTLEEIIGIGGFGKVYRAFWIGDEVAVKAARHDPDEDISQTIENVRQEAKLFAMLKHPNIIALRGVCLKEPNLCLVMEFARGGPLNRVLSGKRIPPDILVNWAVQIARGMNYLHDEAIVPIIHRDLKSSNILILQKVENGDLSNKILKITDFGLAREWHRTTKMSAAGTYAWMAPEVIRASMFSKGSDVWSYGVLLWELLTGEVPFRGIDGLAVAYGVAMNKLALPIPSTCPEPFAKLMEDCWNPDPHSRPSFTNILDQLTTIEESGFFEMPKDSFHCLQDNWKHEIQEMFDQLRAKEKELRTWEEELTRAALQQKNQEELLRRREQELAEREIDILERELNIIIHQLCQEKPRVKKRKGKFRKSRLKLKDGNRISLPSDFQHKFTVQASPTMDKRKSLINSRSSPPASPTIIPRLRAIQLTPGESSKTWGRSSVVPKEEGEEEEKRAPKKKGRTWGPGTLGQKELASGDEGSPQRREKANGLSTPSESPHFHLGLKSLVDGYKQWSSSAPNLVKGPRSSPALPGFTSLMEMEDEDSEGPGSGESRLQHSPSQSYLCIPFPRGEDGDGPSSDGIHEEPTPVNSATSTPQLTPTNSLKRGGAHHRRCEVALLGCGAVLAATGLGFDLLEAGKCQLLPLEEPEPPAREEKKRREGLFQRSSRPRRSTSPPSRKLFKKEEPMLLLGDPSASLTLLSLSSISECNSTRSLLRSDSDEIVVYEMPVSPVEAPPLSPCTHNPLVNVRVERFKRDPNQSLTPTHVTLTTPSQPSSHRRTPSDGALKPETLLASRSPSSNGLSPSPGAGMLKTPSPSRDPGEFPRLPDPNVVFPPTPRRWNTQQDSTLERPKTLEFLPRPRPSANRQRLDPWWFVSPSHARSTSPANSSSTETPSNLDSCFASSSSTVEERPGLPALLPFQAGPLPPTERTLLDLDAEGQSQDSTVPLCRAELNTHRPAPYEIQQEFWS
# Sequence of Focal adhesion kinase 1 (Homo sapiens) (Q05397 2-1052 limits assumed): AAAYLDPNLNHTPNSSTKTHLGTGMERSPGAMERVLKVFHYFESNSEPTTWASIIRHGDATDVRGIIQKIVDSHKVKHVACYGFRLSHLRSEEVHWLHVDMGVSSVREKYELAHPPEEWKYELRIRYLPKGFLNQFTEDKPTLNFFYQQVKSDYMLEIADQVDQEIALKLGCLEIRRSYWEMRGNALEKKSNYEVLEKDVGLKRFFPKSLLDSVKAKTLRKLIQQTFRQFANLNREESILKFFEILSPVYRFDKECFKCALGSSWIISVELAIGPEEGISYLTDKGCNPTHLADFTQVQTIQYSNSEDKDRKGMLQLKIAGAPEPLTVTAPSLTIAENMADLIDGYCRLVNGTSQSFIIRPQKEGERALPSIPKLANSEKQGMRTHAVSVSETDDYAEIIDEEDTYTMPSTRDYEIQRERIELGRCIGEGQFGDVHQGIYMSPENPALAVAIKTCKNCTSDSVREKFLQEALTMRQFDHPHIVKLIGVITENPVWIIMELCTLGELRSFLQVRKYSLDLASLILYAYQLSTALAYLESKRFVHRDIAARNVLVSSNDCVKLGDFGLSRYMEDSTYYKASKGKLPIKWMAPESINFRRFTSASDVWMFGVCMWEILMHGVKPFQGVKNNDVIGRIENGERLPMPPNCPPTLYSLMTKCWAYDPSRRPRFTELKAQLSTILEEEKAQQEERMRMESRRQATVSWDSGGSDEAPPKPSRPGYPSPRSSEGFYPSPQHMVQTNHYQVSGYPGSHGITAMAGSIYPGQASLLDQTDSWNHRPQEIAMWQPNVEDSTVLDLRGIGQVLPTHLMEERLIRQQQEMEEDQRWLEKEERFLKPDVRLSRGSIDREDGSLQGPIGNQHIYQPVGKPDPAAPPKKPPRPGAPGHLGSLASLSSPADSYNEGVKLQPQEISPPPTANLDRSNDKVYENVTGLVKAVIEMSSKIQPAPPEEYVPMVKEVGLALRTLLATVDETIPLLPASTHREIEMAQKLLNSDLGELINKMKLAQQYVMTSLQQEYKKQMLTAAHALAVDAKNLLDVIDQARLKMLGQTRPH
Compound,residual activity [1] [%],residual activity [2] [%],residual activity [3] [%],residual activity [4] [%],residual activity [5] [%],residual activity [6] [%],residual activity [7] [%],residual activity [8] [%]
CC(C)S(=O)(=O)c1ccc2nccc(Nc3ccc4scnc4c3)c2c1,102,93.9,97,93.3,96.8,45.7,99.9,90.8
Cc1cc(-c2cnc(N)c3c(-c4ccc5scnc5c4)csc23)n(C)n1,91.7,97.3,102,104,91.6,65.3,87.7,101
CNC(=O)c1ccc2c(c1)ncn2-c1ccc(CC(=O)OC(C)(C)C)cc1,106,102,90.7,90.2,103,93.2,102,87.8
